Values quoted from earlier work, collected in PMC4948595 (Journal of Medicinal Chemistry, 2016).

Test system: influenza endonuclease

O=c1[nH]cc(-c2ccc(-c3nnn[nH]3)cc2)cc1O [Parhi-6]
IC50: 368 ± 41 nM
